Laboratory results published in the supplement of paper PMC10307832.

Key:
Experiment in all cases: relative viability (nuclei count vs DMSO), 5 days (fraction); higher = more cells survive
A-427 = tested on: A-427
How it was run: (§1)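 Lung cancer cell lines in 1536-well plates were dosed by pin tool the day after seeding, either with one drug alone or with a fixed anchor-drug dose plus five library-drug doses (not always all listed) in √10 steps. After 5 days, cells were fixed and their nuclei stained in one step (final 0.05% Triton X-100, 1% formaldehyde, 1 ug/ml Hoechst), then counted on 4× images. Relative viability is the nuclei count in treated wells divided by that in vehicle wells. Values are medians of duplicate plates.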

BEN = tested on: BEN
How it was run: as §1

HARA = tested on: HARA
How it was run: as §1

LCLC-97TM1 = tested on: LCLC-97TM1
How it was run: as §1

LOU-NH91 = tested on: LOU-NH91
How it was run: as §1

LU99A = tested on: LU99A
How it was run: as §1

LXF-289 = tested on: LXF-289
How it was run: as §1

NCI-H1395 = tested on: NCI-H1395
How it was run: as §1

NCI-H1666 = tested on: NCI-H1666
How it was run: as §1

NCI-H1755 = tested on: NCI-H1755
How it was run: as §1

NCI-H1793 = tested on: NCI-H1793
How it was run: as §1

NCI-H1915 = tested on: NCI-H1915
How it was run: as §1

NCI-H1944 = tested on: NCI-H1944
How it was run: as §1

NCI-H2023 = tested on: NCI-H2023
How it was run: as §1

NCI-H2126 = tested on: NCI-H2126
How it was run: as §1

NCI-H2170 = tested on: NCI-H2170
How it was run: as §1

NCI-H23 = tested on: NCI-H23
How it was run: as §1

NCI-H322M = tested on: NCI-H322M
How it was run: as §1

NCI-H441 = tested on: NCI-H441
How it was run: as §1

NCI-H460 = tested on: NCI-H460
How it was run: as §1

NCI-H650 = tested on: NCI-H650
How it was run: as §1

PC-3 [JPC-3] = tested on: PC-3 [JPC-3]
How it was run: as §1

SK-LU-1 = tested on: SK-LU-1
How it was run: as §1

SMILES: O=C(O)CCCCC(CCSCc1ccccc1)SCc1ccccc1 (centres undefined) [CPI-613] + COc1cc2c(Oc3ccc(NC(=O)C4(C(=O)Nc5ccc(F)cc5)CC4)cc3F)ccnc2cc1OCCCN1CCOCC1 [Foretinib] (partner 0.25 µM)
- relative viability (A-427; first compound 5 µM): 1.14
- relative viability (A-427; first compound 15.81 µM): 1.11
- relative viability (A-427; first compound 50 µM): 0.86
- relative viability (A-427; first compound 158.11 µM): 0.526
- relative viability (A-427; first compound 500 µM): 0.131
- relative viability (BEN; first compound 5 µM): 0.728
- relative viability (BEN; first compound 15.81 µM): 0.443
- relative viability (BEN; first compound 50 µM): 0.602
- relative viability (BEN; first compound 158.11 µM): 0.499
- relative viability (BEN; first compound 500 µM): 0.508
- relative viability (HARA; first compound 15.81 µM): 0.778
- relative viability (HARA; first compound 50 µM): 0.923
- relative viability (HARA; first compound 158.11 µM): 0.51
- relative viability (HARA; first compound 500 µM): 0.0068
- relative viability (LCLC-97TM1; first compound 5 µM): 0.95
- relative viability (LCLC-97TM1; first compound 15.81 µM): 0.935
- relative viability (LCLC-97TM1; first compound 50 µM): 0.926
- relative viability (LCLC-97TM1; first compound 158.11 µM): 0.324
- relative viability (LCLC-97TM1; first compound 500 µM): 0.0466
- relative viability (LOU-NH91; first compound 5 µM): 0.863
- relative viability (LOU-NH91; first compound 15.81 µM): 0.902
- relative viability (LOU-NH91; first compound 50 µM): 0.949
- relative viability (LOU-NH91; first compound 158.11 µM): 0.963
- relative viability (LOU-NH91; first compound 500 µM): 0.916
- relative viability (LU99A; first compound 5 µM): 0.83
- relative viability (LU99A; first compound 15.81 µM): 0.776
- relative viability (LU99A; first compound 50 µM): 0.733
- relative viability (LU99A; first compound 158.11 µM): 0.461
- relative viability (LU99A; first compound 500 µM): 0.112
- relative viability (LXF-289; first compound 5 µM): 0.974
- relative viability (LXF-289; first compound 15.81 µM): 0.919
- relative viability (LXF-289; first compound 50 µM): 0.898
- relative viability (LXF-289; first compound 158.11 µM): 0.226
- relative viability (LXF-289; first compound 500 µM): 0.0507
- relative viability (NCI-H1395; first compound 5 µM): 0.973
- relative viability (NCI-H1395; first compound 15.81 µM): 0.971
- relative viability (NCI-H1395; first compound 50 µM): 0.916
- relative viability (NCI-H1395; first compound 158.11 µM): 0.94
- relative viability (NCI-H1395; first compound 500 µM): 0.961
- relative viability (NCI-H1666; first compound 5 µM): 0.944
- relative viability (NCI-H1666; first compound 15.81 µM): 0.901
- relative viability (NCI-H1666; first compound 50 µM): 0.971
- relative viability (NCI-H1666; first compound 158.11 µM): 0.397
- relative viability (NCI-H1666; first compound 500 µM): 0.206
- relative viability (NCI-H1755; first compound 5 µM): 0.886
- relative viability (NCI-H1755; first compound 15.81 µM): 0.878
- relative viability (NCI-H1755; first compound 50 µM): 0.898
- relative viability (NCI-H1755; first compound 158.11 µM): 0.887
- relative viability (NCI-H1755; first compound 500 µM): 0.175
- relative viability (NCI-H1793; first compound 5 µM): 0.608
- relative viability (NCI-H1793; first compound 15.81 µM): 0.618
- relative viability (NCI-H1793; first compound 50 µM): 0.827
- relative viability (NCI-H1793; first compound 158.11 µM): 0.385
- relative viability (NCI-H1793; first compound 500 µM): 0.0145
- relative viability (NCI-H1915; first compound 5 µM): 1.04
- relative viability (NCI-H1915; first compound 15.81 µM): 1.09
- relative viability (NCI-H1915; first compound 50 µM): 1.06
- relative viability (NCI-H1915; first compound 158.11 µM): 0.309
- relative viability (NCI-H1915; first compound 500 µM): 0.132
- relative viability (NCI-H1944; first compound 5 µM): 0.923
- relative viability (NCI-H1944; first compound 15.81 µM): 0.878
- relative viability (NCI-H1944; first compound 50 µM): 0.967
- relative viability (NCI-H1944; first compound 158.11 µM): 0.649
- relative viability (NCI-H1944; first compound 500 µM): 0.0567
- relative viability (NCI-H2023; first compound 5 µM): 0.704
- relative viability (NCI-H2023; first compound 15.81 µM): 0.719
- relative viability (NCI-H2023; first compound 50 µM): 0.875
- relative viability (NCI-H2023; first compound 158.11 µM): 0.0718
- relative viability (NCI-H2023; first compound 500 µM): 0.0092
- relative viability (NCI-H2126; first compound 5 µM): 1.12
- relative viability (NCI-H2126; first compound 15.81 µM): 1.09
- relative viability (NCI-H2126; first compound 50 µM): 1.09
- relative viability (NCI-H2126; first compound 158.11 µM): 1.14
- relative viability (NCI-H2126; first compound 500 µM): 1.18
- relative viability (NCI-H2170; first compound 5 µM): 0.767
- relative viability (NCI-H2170; first compound 15.81 µM): 0.906
- relative viability (NCI-H2170; first compound 50 µM): 0.929
- relative viability (NCI-H2170; first compound 158.11 µM): 0.795
- relative viability (NCI-H2170; first compound 500 µM): 0.139
- relative viability (NCI-H23; first compound 5 µM): 1.03
- relative viability (NCI-H23; first compound 15.81 µM): 0.917
- relative viability (NCI-H23; first compound 50 µM): 0.985
- relative viability (NCI-H23; first compound 158.11 µM): 0.402
- relative viability (NCI-H23; first compound 500 µM): 0.0153
- relative viability (NCI-H322M; first compound 5 µM): 0.969
- relative viability (NCI-H322M; first compound 15.81 µM): 0.972
- relative viability (NCI-H322M; first compound 50 µM): 1.04
- relative viability (NCI-H322M; first compound 158.11 µM): 0.689
- relative viability (NCI-H322M; first compound 500 µM): 0.0324
- relative viability (NCI-H441; first compound 5 µM): 0.962
- relative viability (NCI-H441; first compound 15.81 µM): 0.948
- relative viability (NCI-H441; first compound 50 µM): 0.937
- relative viability (NCI-H441; first compound 158.11 µM): 0.271
- relative viability (NCI-H441; first compound 500 µM): 0.076
- relative viability (NCI-H460; first compound 5 µM): 0.979
- relative viability (NCI-H460; first compound 15.81 µM): 0.978
- relative viability (NCI-H460; first compound 50 µM): 1.01
- relative viability (NCI-H460; first compound 158.11 µM): 0.479
- relative viability (NCI-H460; first compound 500 µM): 0.0276
- relative viability (NCI-H650; first compound 5 µM): 0.947
- relative viability (NCI-H650; first compound 15.81 µM): 1
- relative viability (NCI-H650; first compound 50 µM): 0.979
- relative viability (NCI-H650; first compound 158.11 µM): 0.836
- relative viability (NCI-H650; first compound 500 µM): 0.806
- relative viability (PC-3 [JPC-3]; first compound 5 µM): 0.973
- relative viability (PC-3 [JPC-3]; first compound 15.81 µM): 0.899
- relative viability (PC-3 [JPC-3]; first compound 50 µM): 0.916
- relative viability (PC-3 [JPC-3]; first compound 158.11 µM): 0.163
- relative viability (PC-3 [JPC-3]; first compound 500 µM): 0.139
- relative viability (SK-LU-1; first compound 5 µM): 0.875
- relative viability (SK-LU-1; first compound 15.81 µM): 0.754
- relative viability (SK-LU-1; first compound 50 µM): 0.626
- relative viability (SK-LU-1; first compound 158.11 µM): 0.282
- relative viability (SK-LU-1; first compound 500 µM): 0.092
